Data: publication PMC8405639, “2-Carba-lysophosphatidic acid is a novel β-lysophosphatidic acid analogue with high potential for lysophosphatidic acid receptor activation and autotaxin inhibition” (Scientific Reports, 2021)

Tests used:
[1] = molecular target: T1, hLPA2 (Homo sapiens, UniProt Q9HBW0); test: TGFα-shedding assay, LPA2; type: cell-based; settings: 293A cells, AP-TGFα release; for EC50: 1 h; for Emax: read-out: Emax ± SEM hLPA2 (converted)
T1 construct: expressed in transfected cells; host or cells: 293A cells
T1 sequence (Q9HBW0 whole entry): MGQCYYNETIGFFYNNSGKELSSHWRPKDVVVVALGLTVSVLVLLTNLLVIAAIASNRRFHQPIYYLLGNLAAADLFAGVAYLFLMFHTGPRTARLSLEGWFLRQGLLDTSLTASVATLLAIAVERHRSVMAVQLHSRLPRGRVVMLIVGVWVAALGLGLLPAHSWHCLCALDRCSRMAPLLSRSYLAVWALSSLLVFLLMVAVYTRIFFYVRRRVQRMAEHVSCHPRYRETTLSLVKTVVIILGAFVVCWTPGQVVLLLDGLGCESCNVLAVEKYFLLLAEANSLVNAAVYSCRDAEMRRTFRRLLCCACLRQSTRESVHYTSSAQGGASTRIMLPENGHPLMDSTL
Procedure: (§1) 293A cells expressing LPA receptors were stimulated with the indicated concentration of LPA, 2carbaLPA, and cPA analogues. Receptor-specific alkaline phosphatase-tagged transforming growth factor-α release was calculated by subtracting the responses in the empty vector-transfected cells from those in the receptor-expressing cells. Data are represented as standard error of the mean of three independent replicates.
(§2) 293A cells (Life Technologies, Tokyo, Japan) were cultured in DMEM (Nissui Pharmaceutical, Tokyo, Japan) supplemented with 10% foetal calf serum (Gibco, Waltham, MA, USA) in an incubator at 37 °C and 5% CO2. This assay was conducted according to a modified version of a method described previously. […] The cells were co-transfected with vectors-expressing human LPA1–6, alkaline phosphatase-tagged TGFα (AP-TGFα). As negative controls, cells transfected with an empty vector instead of the receptor-expressing vector were used. After 24 h, the cells were resuspended in Hank’s balanced salt solution (HBSS), seeded in 96-well plates, and stimulated with cPA analogues administered at tenfold concentration of the final concentration. The cPA analogues were diluted with HBSS, 0.01% protease and fatty acid-free BSA (SERVA Electrophoresis GmbH, Heidelberg, Germany). Cells for LPA4, LPA5, and LPA6 analysis were treated with Ki16425 (final concentration: 10 μM), 5 min before treatment with the cPA analogues. After incubation for 1 h at 37 °C, 80 µL of the supernatant was transferred to fresh 96-well plates. An equal volume of 1 mM p-NPP solution [120 mM Tris–HCl (pH 9.5), 40 mM NaCl, and 10 mM MgCl2] was added to both the supernatant and the cells. Alkaline phosphatase activity was calculated by measuring absorbance at 405 nm using the Cytation 3 plate reader (BioTek, Winooski, VT, USA).

[2] = molecular target: T2, hLPA5 (Homo sapiens, UniProt Q9H1C0); test: TGFα-shedding assay, LPA5; type: cell-based; settings: 293A cells, AP-TGFα release; for EC50: 1 h, with Ki16425 10 μM; for Emax: read-out: Emax ± SEM hLPA5 (converted)
T2 construct: expressed in transfected cells; host or cells: 293A cells
T2 sequence (Q9H1C0 whole entry): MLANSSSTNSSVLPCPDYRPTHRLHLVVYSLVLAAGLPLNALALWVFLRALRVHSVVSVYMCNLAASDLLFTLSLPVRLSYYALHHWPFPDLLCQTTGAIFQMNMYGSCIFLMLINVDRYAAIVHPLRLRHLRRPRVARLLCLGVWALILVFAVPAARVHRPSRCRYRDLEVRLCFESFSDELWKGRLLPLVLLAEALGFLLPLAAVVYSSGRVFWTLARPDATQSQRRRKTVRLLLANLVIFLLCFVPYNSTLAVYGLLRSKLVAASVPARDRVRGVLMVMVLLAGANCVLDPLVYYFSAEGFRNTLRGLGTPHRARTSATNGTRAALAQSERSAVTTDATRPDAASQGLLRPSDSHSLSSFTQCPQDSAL
Procedure: as §1, §2

[3] = molecular target: T3, hLPA1 (Homo sapiens, UniProt Q92633); test: TGFα-shedding assay, LPA1; type: cell-based; settings: 293A cells, AP-TGFα release; for EC50: 1 h; for Emax: read-out: Emax ± SEM hLPA1 (converted)
T3 construct: expressed in transfected cells; host or cells: 293A cells
T3 sequence (Q92633 whole entry): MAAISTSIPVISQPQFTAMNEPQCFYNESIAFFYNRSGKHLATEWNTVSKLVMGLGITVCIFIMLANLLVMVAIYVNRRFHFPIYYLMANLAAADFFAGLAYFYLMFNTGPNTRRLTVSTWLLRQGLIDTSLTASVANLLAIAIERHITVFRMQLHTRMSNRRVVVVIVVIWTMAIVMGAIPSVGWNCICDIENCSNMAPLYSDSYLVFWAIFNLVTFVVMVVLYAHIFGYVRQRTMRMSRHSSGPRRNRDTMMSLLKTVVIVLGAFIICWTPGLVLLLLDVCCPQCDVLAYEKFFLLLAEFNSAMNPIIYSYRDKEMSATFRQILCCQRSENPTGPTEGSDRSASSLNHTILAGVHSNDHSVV
Procedure: as §1, with “Figure 4 Agonistic activity of 2-carba-lysophosphatidic acid (2carbaLPA) and cyclic phosphatidic acid (cPA) analogues toward six lysophosphatidic acid (LPA) receptors. 293A” for “293A”
293A cells (Life Technologies, Tokyo, Japan) were cultured in DMEM (Nissui Pharmaceutical, Tokyo, Japan) supplemented with 10% foetal calf serum (Gibco, Waltham, MA, USA) in an incubator at 37 °C and 5% CO2. This assay was conducted according to a modified version of a method described previously. To improve signal detection, cells for the analysis of LPA1, LPA2, LPA4, and LPA5 were transfected with Gα-chimeric proteins, whereas those for LPA4, LPA5, LPA6 analysis were treated with the LPA1–3 antagonist Ki16425. The cells were co-transfected with vectors-expressing human LPA1–6, alkaline phosphatase-tagged TGFα (AP-TGFα). As negative controls, cells transfected with an empty vector instead of the receptor-expressing vector were used. After 24 h, the cells were resuspended in Hank’s balanced salt solution (HBSS), seeded in 96-well plates, and stimulated with cPA analogues administered at tenfold concentration of the final concentration. The cPA analogues were diluted with HBSS, 0.01% protease and fatty acid-free BSA (SERVA Electrophoresis GmbH, Heidelberg, Germany). Cells for LPA4, LPA5, and LPA6 analysis were treated with Ki16425 (final concentration: 10 μM), 5 min before treatment with the cPA analogues. After incubation for 1 h at 37 °C, 80 µL of the supernatant was transferred to fresh 96-well plates. An equal volume of 1 mM p-NPP solution [120 mM Tris–HCl (pH 9.5), 40 mM NaCl, and 10 mM MgCl2] was added to both the supernatant and the cells. Alkaline phosphatase activity was calculated by measuring absorbance at 405 nm using the Cytation 3 plate reader (BioTek, Winooski, VT, USA).

[4] = molecular target: T4, human recombinant ATX (Homo sapiens, UniProt Q13822); test: LC-QqQ assay of LPC cleavage by ATX (LPA 16:0 production); type: biochemical; settings: for ATX inhibitory activity (LPA 16:0 production, LC-QqQ): 10 µM, LPC 16:0 300 µM, ATX 50 nM, 2 h, 37 °C; for Inhibition of the lysoPLD activity of ATX: stated in Conclusions, assay and concentration not given
T4 construct: purchased Cayman Chemical
Procedure: Figure 5 Inhibition of lysophospholipase D activity of autotaxin (ATX) by cyclic phosphatidic acid (cPA) analogues. (a) Concentration–response curves for the inhibition of ATX activity as measured by the […] of the substrate lysophosphatidylcholine (LPC) using choline oxidase and peroxidase. LPC 16:0 (final concentration: 300 µM, above its critical micellar concentration [CMC]), human recombinant ATX (final concentration: 50 nM), and various concentrations of cPA analogues were used for incubation with 4-aminoantipyrine, TOOS (final concentration: 0.05% (w/v) each), choline oxidase and peroxidase (final concentration: 10 U/mL each) in the ATX assay buffer. The absorbance at a wavelength of 555 nm was measured at 0 and 2 h incubation at 37 °C. Inhibition was calculated as percentage (%) of reduction in absorbance compared with absorbance in the vehicle control (without cPA analogues) after subtraction of the value measured at time 0. Data are represented as mean ± standard deviation (n = 3–4 samples). (b) Inhibition of ATX activity measured by lysophosphatidic acid (LPA 16:0) production via liquid chromatography coupled to triple quadrupole mass spectrometry (LC-QqQ). The substrate LPC 16:0 (final concentration: 300 µM) was incubated with human recombinant ATX (final concentration: 50 nM) and cPA analogues (final concentration: 10 μM) for 2 h at 37 °C. The ATX product, LPA 16:0, was quantified by LC-QqQ. Inhibition was calculated as percentage (%) of reduction in LPA production compared with LPA production in the vehicle control (without cPA analogues). Data are represented as mean ± standard deviation (n = 5–6 samples). TEXT PRINTED IN THE PICTURE: (b) LPA: ATX Inhibition, %: ND
ATX (4 µL, final concentration: 50 nM) and cPA analogues (4 µL, final concentration: 10 µM) were added to a 200-µL siliconized microcentrifuge tube and mixed with 32 µL of LPC 16:0 (final concentration: 300 µM) in ATX assay buffer. After incubation at 37 °C for 2 h, 160 µL of acidic methanol was added to stop enzymatic reaction. Sample solutions were filtered, and the LPA 16:0 production was analysed using LC-QqQ as per methods described previously. Inhibition was calculated as a percentage (%) of reduction in LPA production compared to LPA production in the vehicle control (without cPA analogues).

| EC50 [1] [nM] | Emax [1] [%] | EC50 [2] [nM] | Emax [2] [%] | EC50 [3] [nM] | Emax [3] [%] | EC50 ([1]; bound) [nM] | ATX inhibitory activity (LPA 16:0 production, LC-QqQ) [4] | Inhibition of the lysoPLD activity of ATX [4] [%] | Structure (SMILES) |
| --- | --- | --- | --- | --- | --- | --- | --- | --- | --- |
| 256 | 35.8 | 50.2 | 38.3 | 54.8 | 27 | – | – | – | CCCCCCCC/C=C\CCCCCCCC(=O)OCC(CO)CP(=O)(O)O (stereo not shown) [2carbaLPA 18:1, 2-carba-lysophosphatidic acid] |
| – | – | 973 | 31.7 | 997 | 20.6 | > 3000 | – | – | CCCCCCCC/C=C\CCCCCCCC(=O)OCC1COP(=O)(O)C1 (stereo not shown) [2ccPA 18:1, 2-carba-cyclic phosphatidic acid] |
| 2600 | 53.2 | 2230 | 51.2 | 370 | 26.9 | – | weak | 30 | CCCCCCCC/C=C\CCCCCCCC(=O)OC[C@@H]1CCP(=O)(O)O1 [3ccPA 18:1, 3-carba-cyclic phosphatidic acid] |
| 1070 | 35.9 | 354 | 35.6 | 460 | 24.1 | – | poor ATX inhibitor | 10 | CCCCCCCC/C=C\CCCCCCCC(=O)OC[C@@H]1COP(=O)(O)O1 [cPA 18:1, 1-Oleoyl-cPA] |

| Structure (SMILES) | EC50 [1] [nM] | Emax [1] [%] | EC50 [2] [nM] | Emax [2] [%] | EC50 [3] [nM] | Emax [3] [%] | EC50 ([1]; bound) [nM] | ATX inhibitory activity (LPA 16:0 production, LC-QqQ) [4] | Inhibition of the lysoPLD activity of ATX [4] [%] |
| --- | --- | --- | --- | --- | --- | --- | --- | --- | --- |
| CCCCCCCC/C=C\CCCCCCCC(=O)OC[C@@H](O)CCP(=O)(O)O [3carba LPA 18:1, 3-carba-lysophosphatidic acid] | 28.3 | 30.7 | 89.3 | 35.5 | 11 | 26.9 | – | significantly stronger than that of 3ccPA | – |
